Row | melting point | SMILES
1 | 156 to 158 °C | CCOC(=O)c1nnn(-c2ccc(C3=NNC(=O)NC3C)cc2)c1C(=O)OCC (stereo not given)
2 | 116 to 118 °C | C[C@H](c1ccccc1CCn1cncn1)N(c1cc(F)ccc1F)S(=O)(=O)c1ccc(Cl)cc1
3 | 152 to 154 °C | ClCc1cccc(-c2nnn[nH]2)c1
4 | 170 to 172 °C | CC(=O)c1cc(C)c2c(n1)-c1ccccc1C2=O
5 | 108 to 110 °C | CC(C)(CCl)C(=O)N(O)Cc1ccccc1Cl
6 | 159 to 160 °C | COc1ccc(-c2ccc(C(=O)NCCOc3ccc(CC(Oc4ccc(C(C)C)cc4)C(=O)O)cc3)cc2)cc1 (stereo not given)
7 | 190 to 191 °C | COC(=O)c1c(CN2CCC(S(C)(=O)=O)CC2)c(=O)c2ccc(F)cc2n1-c1ccccc1
8 | 79 to 82 °C | O=C(O)COCOc1cc(Cl)cc(Cl)c1
9 | 124 °C | O=C(Cc1cccc2ccccc12)Nc1cc([C@H]2C[C@@H](NC(=O)c3cccc([N+](=O)[O-])c3)C2)[nH]n1
10 | 174 °C | COC(=C1NC(=O)C(=NO)C1=O)c1ccccc1
11 | 108 °C | CCCCCCCNC(=O)N(C)c1cccc(-c2ccc(CCC(=O)O)cc2)n1
12 | 227 to 228 °C | N#Cc1cc(-c2c(C(N)=O)ccn2-c2ccc(F)cc2)ccc1OCC(F)(F)F
13 | 211 to 212 °C | O=C1NC(=O)C(c2cc(Cl)ccc2S(=O)(=O)Cl)N1 (stereo not given)
14 | 227 °C | O=C(N[C@H]1CC[C@H](CCN2CCN(c3nccc4c3CCO4)CC2)CC1)c1ccc2ncccc2c1
15 | 75 °C | C1=CC(c2ccccc2)Nc2ccccc21 (stereo not given)
16 | 168 °C | Cc1ncn(Nc2cccc(Cl)c2)c1-c1cccc(Cl)c1
17 | 73 °C | CC(Oc1ccc2c(c1)OCC(Cc1ccccn1)C2O)c1ccc2ccccc2n1 (stereo not given)
18 | 219 °C | Clc1ccc(-c2nc(Sc3cccs3)[nH]c2-c2ccc(Cl)cc2)cc1
19 | 132 to 133 °C | Fc1cc(Cl)c(CCl)cc1-c1ncnc(C(F)F)c1Cl
20 | 127 to 131 °C | CC(C)(C)OC(=O)NC1C2CN(CC(O)(c3ccccc3)c3ccccc3)CC21 (stereo not given)
21 | 144 to 147 °C | Cc1cccc(-c2cn(C)cc(-c3cccc(Br)c3)c2=O)c1
22 | 98 to 104 °C | CCOC(=O)C1C(=O)NCC1CCc1ccc(C(=O)OCC(C)C)cc1 (stereo not given)
23 | 198 to 200 °C | C(#Cc1ccccc1)C1=CCN(Cc2c[nH]c3ncccc23)CC1
24 | 64 to 66 °C | COc1ccc([N+](=O)[O-])c(C(C)=O)c1OC

Row | melting point | SMILES
25 | 120 to 121 °C | CCOC(=O)/C=C/c1cn(Cc2ccc(OCc3nc(-c4ccccc4)oc3C)cc2)cc1-c1ccccc1
26 | 105 to 108 °C | CC(C)(CO)c1cn2nc(NCCCN3CCC(OC(c4ccccc4)c4ccccc4)CC3)ccc2n1
27 | 241 to 242 °C | CC1(C)CN(C(=O)c2cc3c(C(=O)OC(C)(C)C)ncn3c3ccc(Cl)cc23)CC(C)(C)N1
28 | 136 °C | CC[Si](CC)(CC)c1ccccc1S(=O)(=O)NC(=O)Nc1nc(OC)cc(OC)n1
29 | 257 to 259 °C | CS(=O)(=O)N1CCN(c2cc3ccccc3c(=O)[nH]2)CC1
30 | 183 to 184 °C | COC(=O)c1cc(-c2ccc(=O)n(C(C)C)n2)c(-c2ccccc2)nc1OCC(N)=O
31 | > 300 °C | COc1cc(NS(C)(=O)=O)ccc1-c1nc2cc3c(cc2[nH]1)NC(=O)C3(C)C
32 | 113 to 115 °C | O=C(CSCCCCOc1ccccc1)NNC(=O)c1ccc(O)cc1
33 | 118 to 120 °C | CC(C)(C)c1nn(-c2c(Cl)cc(C(F)(F)F)cc2Cl)c(Cl)c1-c1nc(C#N)c(C#N)[nH]1
34 | 144 to 148 °C | CCC12CCC3c4ccc(OC)cc4CCC3C1CCC2(OC(C)=O)C(C)=O (stereo not given)
35 | 232 to 234 °C | CC(=O)Nc1nc2c(Oc3cc(-c4ccc(C(F)(F)F)cc4NCC4CCCCC4)ncn3)cccc2s1
36 | 186 to 188 °C | COc1ccc2c(c1)c(Cc1nc(-c3ccc(Cl)cc3)cs1)c(C)n2C(=O)c1ccc(Cl)cc1
37 | 152 to 154 °C | CCC(CC)(CC)NC(=S)Nc1cc(Cl)cc(Cl)c1
38 | 118 to 119 °C | CC[C@@H](C)NCc1cnc2c(C)c(NC(=O)c3ccc(OC[C@@H]4CCCO4)cc3)ccc2c1
39 | 156 to 158 °C | FC(F)(F)c1ccc(Cl)c(-c2cccn3nc(Cl)nc23)c1
40 | 135 to 137 °C | COc1ccc2[nH]c(C=Cc3ccccc3Cl)cc2c1
41 | 208 to 210 °C | CCC(C)(CC)c1nnc(NC(=O)c2c(OC)cccc2OC)s1
42 | 161 to 164 °C | COc1ccc(CNc2nc(Cl)c3ncn(Cc4ccc(OC)cc4)c3n2)cc1
43 | 192 to 194 °C | Cc1cc(NS(=O)(=O)c2ccc(S(C)(=O)=O)cc2)cc(C)c1S(=O)(=O)C[N+](=O)[O-]
44 | 64 to 65 °C | Cc1cc(F)cc(C)c1Cl
45 | 167 to 169 °C | CC(C)=NNC(=O)c1ccc(-c2ccc(Cl)cc2)o1
46 | 94 to 96 °C | COc1cc(O)cc(Cl)c1
47 | 158 to 160 °C | OC1CNc2nc3ccccc3n2C1 (stereo not given)
48 | 213 to 216 °C | Cn1ccnc1Sc1ccc(Nc2c(C#N)cnc3cc(/C=C/CCN4CCC(N5CCCC5)CC4)sc23)cc1Cl

Row | melting point | SMILES
49 | 266 to 268 °C | Cn1c(/C=C/C(=O)O)c(-c2ccccc2)c2ccccc2c1=O
50 | 136 to 138 °C | CC(=O)Nc1c(C(=O)c2ccccc2)[nH]c2cc(C)ccc12
51 | 139 to 142 °C | CC(C)(C)[Si](C)(C)Oc1ccccc1-c1cc(-c2cccc([N+](=O)[O-])c2)c(C#N)c(NC(=O)c2ccsc2)n1
52 | 246 to 248 °C | CS(=O)(=O)Cc1cccc(CNC(=O)c2nc3scc(COCc4ccc(C(=O)O)cc4)c3c(=O)[nH]2)c1
53 | 59 °C | C=C(C)C(=O)OC(C1CCCC1)C(O)(C(F)(F)F)C(F)(F)F (stereo not given)
54 | 103 to 104 °C | CNN(C)C(=S)Nc1ccc(Cl)cc1
55 | 161 to 162 °C | CCCCCc1nc2ccccc2[nH]1
56 | 100 to 108 °C | COCC[C@H]1CN(c2cc(C)cc3c2C=Nc2ccccc2N3)CCN1C
57 | 203 to 204 °C | CCOCc1nc2c(N)nc3ccccc3c2n1Cc1cc(-c2ccc(F)cc2)no1
58 | 203 to 204 °C | Cn1cc(Br)cc(Nc2cc(C3CC3)n[nH]2)c1=O
59 | 77 to 78 °C | CCOC(=O)CC1(CC)OCCc2c1[nH]c1c(C)cccc21 (stereo not given)
60 | 128 to 131 °C | CC(=O)Nc1ccc(-c2ccccc2)cc1[N+](=O)[O-]
61 | 163 to 165 °C | CC(C)c1nc2c(N)nc3ccccc3c2s1
62 | 134 to 136 °C | Clc1ccc(-c2cc(C3CCN(Cc4cccc(Cl)c4)CC3)n[nH]2)cc1
63 | 161 to 164 °C | Cc1c(SCc2ccsc2)ccnc1CSc1nc2ccccc2[nH]1
64 | 206 to 207 °C | COc1cc(C(=O)C=Cc2ccncc2)ccc1OCC(=O)Nc1nc2ccccc2s1
65 | 85.5 to 88.6 °C | C=Cc1ccc2c(c1)CCN2C(=O)OC(C)(C)C
66 | 35 to 37 °C | CC(C)=CCCC(C)=CCCC(C)=CCCC(C)=CC=C1SC(=S)N(CC(=O)O)C1=O
67 | 158 to 159 °C | N#Cc1c[nH]c(-c2ccc(F)cc2)c1
68 | 171 to 173 °C | CN(CCCOc1ccc(CC2SC(=O)NC2=O)cc1)c1nc2ccccc2o1 (stereo not given)
69 | 135 to 138 °C | C[C@H]1C[C@@](O)(c2cccc(S(=O)(=O)c3cc4c(cc3F)N(C)C(=O)CC4)c2)CCO1
70 | 149 to 150 °C | CC#CC(C)(C)NC(=O)C(CC)Oc1ccc2ccncc2c1 (stereo not given)
71 | 231 °C | Cc1ccc2c(c1)c(N1CCN(C(=O)c3ccco3)CC1)c(C#N)c(=O)n2C
72 | 86 °C | O=C(O)C(=NOc1ccccc1)c1cccs1

Row | melting point | SMILES
73 | 144 to 146 °C | Cc1cccc(C(=O)Cc2ccnc(-c3ccc(OCC(N)=O)cc3)c2)n1
74 | 105 to 106 °C | c1ccc(COc2ccc3ccc4cccc5ccc2c3c45)cc1
75 | 91 to 93 °C | CON(C)C(=O)NN(C(=O)Cl)c1cccc2c1OC(C)C2 (stereo not given)
76 | 304 to 308 °C | COc1cc2c3c(n(CCCCO)c(=O)c2cc1OC)-c1cc2c(cc1C3=O)OCO2
77 | 225 to 226 °C | CS(=O)(=O)c1ccc(-c2[nH]c3ccccc3c2-c2ccc(Br)cc2)cc1
78 | 138 to 140 °C | O=C(c1ccc(F)c(F)c1)N1CCC[C@H](c2nc(-c3ccc([N+](=O)[O-])cc3)no2)C1
79 | 54 to 56 °C | CC(C)OC(=O)CC1SCN(c2ccc(Cl)c(Cl)c2)C1=O (stereo not given)
80 | 157 to 158 °C | Cc1ccccc1COc1cccnc1NC(=N)Nc1ccccc1
81 | 154 to 156 °C | CC1=C(C)N(c2c(Br)cc(C)cc2Br)C2=NCCN21
82 | 133 to 135 °C | Fc1cccc(-c2ccc(Cl)nn2)c1
83 | 149 to 150 °C | O=c1ccn(-c2cccc(Oc3nc4ccccc4[nH]3)c2)nc1-c1ccnn1-c1ccccc1
84 | 183 to 185 °C | C=Cc1ncc2[nH]c3cccc(OCc4ccccc4)c3c2c1COC
85 | 188 to 190 °C | COc1ccccc1N1CCN(Cc2c[nH]c3ccccc23)CC1
86 | 94 °C | CC(=O)Oc1cccc(-c2noc(C)n2)c1
87 | 144 to 147 °C | COc1ccc2[nH]c(/C(=C/c3ccccc3)c3ccccc3)cc2c1
88 | 31 °C | CCCCCCCCOc1ccc(-c2cc(F)cc(F)c2F)cc1
89 | 72 to 74 °C | COc1cccc2ocnc12
90 | 106 °C | COc1ccc(C#Cc2ccc(C=O)cc2)cc1
91 | 188 °C | CC(C)(C)OC(=O)Nc1ccccc1NC(=O)c1nc2c(s1)CN(C(=O)OC(C)(C)C)CC2
92 | 184 °C | CC(=O)NC[C@H]1CN(c2ccc(N3CC(O[Si](C)(C)C(C)(C)C)C3)c(F)c2)C(=O)O1
93 | 128 to 130 °C | N[C@H](Cc1cccc(OC(F)(F)C(F)F)c1)[C@@H](O)c1csc(-c2ccccc2)n1 (racemic)
94 | 110 to 111 °C | COCC(=O)Nc1nc2c(C)cccc2s1
95 | 160 °C | CC(C)N(CC(O)COc1ccccc1C(=O)Nc1cccc2[nH]ccc12)C(C)C (stereo not given)
96 | 136 to 137 °C | COC(=O)c1c(OCC#N)c2cc(OC)ccc2n1C

Row | SMILES | melting point
97 | CC[C@@H]1C(=O)N(c2ccc(C#N)c(Cl)c2)[C@@H](C)[C@H]1O | 109 to 110 °C
98 | COC(=O)c1ccc(C#CC2(O)CN3CCC2CC3)nc1 (stereo not given) | 180 to 182 °C
99 | CCOC(=O)C(Br)=CC1C(C(=O)OC(C#N)c2cccc(Oc3ccccc3)c2)C1(C)C (stereo not given) | 69 °C
100 | Cc1csc(C2=CCN(CCCC(O)c3ccc(F)cc3)CC2)n1 (stereo not given) | 89 to 90.5 °C

From a melting point compilation (Tetko et al.; mined from patent text by program, amines drawn as free bases though some values may be those of a salt)
